Literature values in patent US20230013403A1, “COMPOSITIONS COMPRISING HUMAN MILK OLIGOSACCHARIDES FOR USE IN A SUBJECT TO SUPPORT LANGUAGE DEVELOPMENT” (SOCIETE DES PRODUITS NESTLE S.A., priority 2019, published 2023).

Test system: rodents
Details: chronic oral administration

2′ fucosyllactose [2′FL]
learning and working memory functions of treated animals: significantly better
